According to US6096752A, “Method for the preparation of tertiary amines, a compound useful therefor and alpha-2-receptor active tetrahydroisoquinoline derivatives” (priority 1998, dated 2000):

molecular target: T1, human α2A (α2 -C10)-adrenoceptor (Homo sapiens, UniProt P08913); test: [3H]-rauwolscine radioligand receptor binding (competition) assay, α2A-adrenoceptor; conditions: recombinant mammalian S115 cell line; 1 nM [3H]-rauwolscine; 50 mM KH2PO4 pH 7.5; 30 min at 25° C.; read-out: α2A aff (Ki values)
T1 construct: expressed in transfected cells; host or cells: S115 cells (recombinant mammalian S115 cell line), crude particulate homogenate
T1 sequence (P08913 1-465): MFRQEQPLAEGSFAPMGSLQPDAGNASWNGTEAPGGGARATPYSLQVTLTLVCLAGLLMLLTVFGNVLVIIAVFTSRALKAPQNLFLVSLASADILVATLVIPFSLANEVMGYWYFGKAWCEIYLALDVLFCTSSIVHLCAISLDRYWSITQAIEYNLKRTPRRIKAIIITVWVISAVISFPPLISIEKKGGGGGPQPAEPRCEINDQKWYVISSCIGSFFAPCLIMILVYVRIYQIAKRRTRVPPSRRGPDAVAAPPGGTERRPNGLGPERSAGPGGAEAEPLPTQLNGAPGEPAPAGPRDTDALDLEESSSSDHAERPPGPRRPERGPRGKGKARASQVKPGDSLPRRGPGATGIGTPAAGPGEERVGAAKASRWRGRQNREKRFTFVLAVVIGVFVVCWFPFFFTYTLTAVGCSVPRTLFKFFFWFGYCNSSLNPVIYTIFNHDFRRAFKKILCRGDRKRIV
Experimental: The affinity of the test compounds on the α2 -adrenoceptor was established using the recombinant mammalian S115 cell line expressing the human α2A (α2 -C10)-adrenoceptor (7) in a radioligand receptor binding assay. The cells were harvested and suspended in 30 v/w of 50 mM Tris with 5 mM EDTA (pH 7.5 at 4° C.) and homogenized in Teflon-glass homogenizer. Cell homogenate was then centrifuged twice at 47,800×g (Sorvall RC-5C) for 30 min at 4° C. with re-suspension by two strokes in Tris/EDTA buffer. The final pellet was re-suspended in ten v/w of incubation buffer (50 mM KH2 PO4 buffer, pH 7.5 at 25° C.) and distributed in aliquots to be stored at -80° C. for later use.
In a competition binding experiment, the radioligands were incubated at 1 nM [^3 H]-rauwolscine with the cell suspension (20-50 μg of total protein per tube) with or without presence of a test compound in 50 mM KH2 PO4 (pH 7.5 at 25° C.) in a total volume of 0.25 ml. Non-specific binding of the radioligand was determined using 0.1 mM oxymetazoline. After a 30 min incubation at 25° C., incubation was terminated by rapid filtration through GF/B filters using a cell harvester. Inhibition experiments were analysed using a non-linear regression curve-fitting computer program to obtain Ki values.

Row | SMILES | Ki
1 | CN1CCc2c(cccc2OCCCCCC#N)C1 [Compound 5b, 5-(5-cyano-1-pentyloxy)-2-methyl-1,2,3,4-tetrahydroisoquinoline] | 1040 nM
2 | CN1CCc2cc(OCCCCCC#N)ccc2C1 [Compound 5c, 6-(5-cyano-1-pentyloxy)-2-methyl-1,2,3,4-tetrahydroisoquinoline] | 3710 nM
3 | CN1CCc2c(cccc2OCc2ccc(F)c(F)c2)C1 [Compound 5d, 5-(3,4-difluorophenylmethoxy)-2-methyl-1,2,3,4-tetrahydroisoquinoline] | 318 nM
4 | CN1CCc2cc(OCc3ccc(F)c(F)c3)ccc2C1 [Compound 5e, 6-(3,4-difluorophenylmethoxy)-2-methyl-1,2,3,4-tetrahydroisoquinoline] | 1430 nM
5 | CN1CCc2cccc(OCc3ccc(F)c(F)c3)c2C1 [Compound 5f, 8-(3,4-difluorophenylmethoxy)-2-methyl-1,2,3,4-tetrahydroisoquinoline] | 490 nM
6 | CCCCOc1cccc2c1CCN(CCC)C2 [Compound 5g, 5-butoxy-2-propyl-1,2,3,4-tetrahydroisoquinoline] | 264 nM
7 | CN1CCc2c(cccc2OCC2CCCCC2)C1 [Compound 5h, 5-cyclohexylmethoxy-2-methyl-1,2,3,4-tetrahydroisoquinoline] | 750 nM
8 | CN1CCc2cc(OCC3CCCCC3)ccc2C1 [Compound 5i, 6-cyclohexylmethoxy-2-methyl-1,2,3,4-tetrahydroisoquinoline] | 977 nM
9 | CN1CCc2cccc(OCC3CCCCC3)c2C1 [Compound 5j, 8-cyclohexylmethoxy-2-methyl-1,2,3,4-tetrahydroisoquinoline] | 173 nM
10 | CCCCCCCCCCCCCCOc1cccc2c1CCN(C)C2 [Compound 5k, 5-tetradecanyloxy-2-methyl-1,2,3,4-tetrahydroisoquinoline] | 6480 nM
11 | CCCCCCCCCCCCCCOc1ccc2c(c1)CCN(C)C2 [Compound 5l, 6-tetradecanyloxy-2-methyl-1,2,3,4-tetrahydroisoquinoline] | 266 nM
12 | CCCCCCCCCCCCCCOc1cccc2c1CN(C)CC2 [Compound 5m, 8-tetradecanyloxy-2-methyl-1,2,3,4-tetrahydroisoquinoline] | 25000 nM
